{
  "source": "ChEMBL document CHEMBL1141775",
  "about": "“Friedolanostanes and lanostanes from the leaves of Garcinia hombroniana” (2005)",
  "data": [
    {"system": "Staphylococcus aureus", "assay": "Antibacterial activity against methicillin-resistant Staphylococcus aureus", "assay_type": "functional", "units": {"MIC": "µg/mL"}, "values": [
      {"compound": "COC(=O)[C@H](C)CC(=O)C[C@@H](C)C1=CC[C@@]2(C)[C@@H]3CC[C@H]4C(C)(C)[C@@H](O)CC[C@]4(C)C3=CC[C@]12C", "MIC": "> 128"},
      {"compound": "COC(=O)/C(C)=C/[C@H](O)C[C@@H](C)[C@]1(C)CC=C2[C@@H]3CC[C@H]4C(C)(C)[C@H](O)CC[C@]4(C)[C@@]3(O)CC[C@]21C", "note": "[GARCIHOMBRONANE B]", "MIC": "> 128"},
      {"compound": "CC(C)=C/C=C\\[C@@H](C)[C@]1(C)CC=C2[C@@H]3CC[C@H]4C(C)(C)[C@H](O)CC[C@]4(C)[C@@]3(O)CC[C@]21C", "note": "[GARCIHOMBRONANE F]", "MIC": "> 128"},
      {"compound": "C/C(=C\\C=C/[C@@H](C)[C@]1(C)CC[C@]2(C)C1=CC[C@@]1(O)[C@H]2CC[C@H]2C(C)(C)[C@H](O)CC[C@@]21C)C(=O)O", "note": "[GARCIHOMBRONANE G]", "MIC": "> 128"},
      {"compound": "C/C(=C\\CC[C@@H](C)[C@]1(C)CC[C@]2(C)C1=CC[C@@]1(O)[C@H]2CC[C@H]2C(C)(C)[C@H](O)CC[C@@]21C)C(=O)O", "note": "[GARCIHOMBRONANE H]", "MIC": "> 128"},
      {"compound": "C/C(=C\\CC[C@@H](C)[C@]1(C)CC[C@]2(C)C1=CC[C@@]1(O)[C@H]2CC[C@H]2C(C)(C)[C@@H](O)CC[C@@]21C)C(=O)O", "note": "[GARCIHOMBRONANE I]", "MIC": "> 128"},
      {"compound": "COC(=O)[C@H](C)CC(=O)C[C@@H](C)C1=CC[C@@]2(C)[C@@H]3CC[C@H]4C(C)(C)[C@H](O)CC[C@]4(C)C3=CC[C@]12C", "note": "[GARCIHOMBRONANE J]", "MIC": "> 128"},
      {"compound": "COC(=O)/C(C)=C/[C@H](O)C[C@@H](C)[C@]1(C)CC=C2C3=C(CC[C@]21C)[C@@]1(C)CC[C@@H](O)C(C)(C)[C@@H]1CC3", "note": "[GARCIHOMBRONANES C]", "MIC": "> 128"},
      {"compound": "C[C@H](CC(=O)C[C@@H](C)C1=CC[C@@]2(C)[C@@H]3CC[C@H]4C(C)(C)[C@@H](O)CC[C@]4(C)C3=CC[C@]12C)C(=O)O", "note": "[GARCIHOMBRONANES D]", "MIC": "> 128"},
      {"compound": "C[C@H](CC(=O)C[C@@H](C)C1=CC[C@@]2(C)[C@@H]3CC[C@H]4C(C)(C)[C@H](O)CC[C@]4(C)C3=CC[C@]12C)C(=O)O", "note": "[GARCIHOMBRONANES E]", "MIC": "> 128"}
    ]}
  ]
}
